Experimental findings from US12091426B2, “Bifunctional degraders of hematopoietic progenitor kinase and therapeutic uses thereof” (Nurix Therapeutics, Inc., priority 2021, dated 2024) are described below.

A value given as a limit tells only on which side of the number the result lay.

The assay has as its target T1, HPK1 (Homo sapiens, UniProt Q92918).
T1 construct: A HiBiT tag was introduced by CRISPR on the N terminus of HPK1 in Jurkat cells; host or cells: Jurkat cells (ATCC TIB-152), monoclonal line with CRISPR knock-in of HiBiT at the endogenous HPK1 locus
Put plainly: HPK1 Cellular HiBit Degradation Assay. The class given is cell-based. The settings on record: HiBiT HPK1 Jurkat cells, 24 hrs; for DC50: concentration at which 50% of HPK1 was remaining, read-out: DC50 Category; for Dmax: Jurkat, read-out: Dmax Category. Put shortly: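 Jurkat cells with CRISPR knock-in N-terminal HiBiT-HPK1 were treated with CTMs (11-point, 3.16-fold, 10 uM to 0.1 nM final) for 24 hrs at 37° C. HiBiT lytic luminescence, with parental Jurkat as background and DMSO as 100%, gave % HPK1 remaining; four-parameter fit yielded DC50 and Dmax (100 minus lowest % remaining).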

Setting [1] is: maximum degradation vs DMSO vehicle control.

T1 sequence (Q92918 whole entry): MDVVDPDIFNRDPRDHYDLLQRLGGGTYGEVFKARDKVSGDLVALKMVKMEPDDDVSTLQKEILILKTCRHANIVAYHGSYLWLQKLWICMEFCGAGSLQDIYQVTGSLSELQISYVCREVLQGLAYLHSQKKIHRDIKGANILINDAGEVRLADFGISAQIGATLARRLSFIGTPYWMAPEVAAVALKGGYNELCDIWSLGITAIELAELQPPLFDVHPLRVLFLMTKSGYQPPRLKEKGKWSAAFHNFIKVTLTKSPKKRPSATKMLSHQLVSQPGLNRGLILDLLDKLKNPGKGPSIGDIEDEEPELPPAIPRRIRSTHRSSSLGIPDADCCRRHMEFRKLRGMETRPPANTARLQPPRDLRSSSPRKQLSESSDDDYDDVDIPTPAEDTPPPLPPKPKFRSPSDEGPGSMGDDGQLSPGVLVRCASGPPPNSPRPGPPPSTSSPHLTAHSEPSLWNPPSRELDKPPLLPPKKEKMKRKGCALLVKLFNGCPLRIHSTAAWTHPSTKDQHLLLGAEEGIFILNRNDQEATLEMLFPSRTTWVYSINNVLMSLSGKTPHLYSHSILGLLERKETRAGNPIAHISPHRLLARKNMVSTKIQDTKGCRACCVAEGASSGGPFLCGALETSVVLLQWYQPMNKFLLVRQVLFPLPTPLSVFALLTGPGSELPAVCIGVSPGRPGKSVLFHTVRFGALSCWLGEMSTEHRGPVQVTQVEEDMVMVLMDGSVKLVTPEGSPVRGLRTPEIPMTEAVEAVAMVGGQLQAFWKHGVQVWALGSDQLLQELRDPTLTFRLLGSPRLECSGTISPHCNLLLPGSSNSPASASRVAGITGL

`CC(C)n1cnc2cc(-c3ccc4c(c3)N([C@H]3C[C@@H](N5CCCCC5)C3)C(=O)C43CCN(C(=O)C4(C)CCN(C(=O)C5CCN(c6ccc([C@H]7CCC(=O)NC7=O)cn6)CC5)CC4)CC3)nc(NC3CC3)c21` [Example 213, (3R)-3-(6-{4-[4-({6-[4-(cyclopropylamino)-3-(propan-2-yl)-3H-imidazo[4,5-c]pyridin-6-yl]-2-oxo-1-[(1S,3S)-3-(piperidin-1-yl)cyclobutyl]-1,2-dihydrospiro[indole-3,4′-piperidin]-1′-yl}carbonyl)-4-methylpiperidine-1-carbonyl]piperidin-1-yl}pyridin-3-yl)piperidine-2,6-dione]: the DC50 is less than 100 nM. The “Dmax Category” value under setting [1] is recorded as “B (B: >70%-<85%)”.
On to `CC(C)n1cnc2cc(-c3ccc4c(c3)N([C@H]3C[C@@H](N5CCCCC5)C3)C(=O)C43CCN(C(=O)[C@@H]4CCN(C(=O)C5CCN(c6ccc(N7CCC(=O)NC7=O)cc6)CC5)C4)CC3)nc(NC3CC3)c21` [Example 233, 1-(4-{4-[(3R)-3-({6-[4-(cyclopropylamino)-3-(propan-2-yl)-3H-imidazo[4,5-c]pyridin-6-yl]-2-oxo-1-[(1S,3S)-3-(piperidin-1-yl)cyclobutyl]-1,2-dihydrospiro[indole-3,4′-piperidin]-1′-yl}carbonyl)pyrrolidine-1-carbonyl]piperidin-1-yl}phenyl)-1,3-diazinane-2,4-dione], for which the DC50 is less than 100 nM. Moreover, the Dmax under setting [1] lay in the range of 70 to 85%.
In the same order, the values of `CC(C)n1cnc2cc(-c3ccc4c(c3)N([C@H]3C[C@@H](N5CCCCC5)C3)C(=O)C43CCN(C(=O)C4[C@@H]5C[C@H]4CN(C(=O)[C@H]4CC[C@H](Oc6ccc(C7CCC(=O)NC7=O)cc6)CC4)C5)CC3)nc(NC3CC3)c21` (stereo partly drawn) [Example 238, 3-(4-(((1R,4R)-4-((1R,5S,6S)-6-(6-(4-(cyclopropylamino)-3-isopropyl-3H-imidazo[4,5-c]pyridin-6-yl)-2-oxo-1-((1S,3S)-3-(piperidin-1-yl)cyclobutyl)spiro[indoline-3,4′-piperidine]-1′-carbonyl)-3-azabicyclo[3.1.1]heptane-3-carbonyl)cyclohexyl)oxy)phenyl)piperidine-2,6-dione] are less than 100 nM and more than 85%.
The corresponding values for `CC(C)n1cnc2cc(-c3ccc4c(c3)N([C@H]3C[C@@H](N5CCCCC5)C3)C(=O)C43CCN(C(=O)[C@H]4[C@@H]5C[C@H]4CN(C(=O)C4CCN(c6ccc(C7CCC(=O)NC7=O)cn6)CC4)C5)CC3)nc(NC3CC3)c21` (stereo partly drawn) [Example 239, 3-(6-(4-((1R,5S,6S)-6-(6-(4-(cyclopropylamino)-3-isopropyl-3H-imidazo[4,5-c]pyridin-6-yl)-2-oxo-1-((1S,3S)-3-(piperidin-1-yl)cyclobutyl)spiro[indoline-3,4′-piperidine]-1′-carbonyl)-3-Azabicyclo[3.1.1]heptane-3-carbonyl)piperidin-1-yl)pyridin-3-yl)piperidine-2,6-dione] are less than 100 nM and 50 to 70%.
The corresponding values for `CC(C)n1cnc2cc(-c3ccc4c(c3)N([C@H]3C[C@@H](N5CCCCC5)C3)C(=O)C43CCN(C(=O)C4[C@@H]5C[C@H]4CN(C(=O)CC4CCN(c6ccc(C7CCC(=O)NC7=O)cn6)CC4)C5)CC3)nc(NC3CC3)c21` (stereo partly drawn) [Example 240, 3-(6-(4-(2-((1R,5S,6S)-6-(6-(4-(cyclopropylamino)-3-isopropyl-3H-imidazo[4,5-c]pyridin-6-yl)-2-oxo-1-((1S,3S)-3-(piperidin-1-yl)cyclobutyl)spiro[indoline-3,4′-piperidine]-1′-carbonyl)-3-azabicyclo[3.1.1]heptan-3-yl)-2-oxoethyl)piperidin-1-yl)pyridin-3-yl)piperidine-2,6-dione] are less than 100 nM and more than 85%.
As for `CC(C)n1cnc2cc(-c3ccc4c(c3)N([C@H]3C[C@@H](N5CCCCC5)C3)C(=O)C43CCN(C(=O)C4C5CC4CN(C(=O)[C@H]4CC[C@H](Oc6ccc(C7CCC(=O)NC7=O)cc6)CC4)C5)CC3)nc(NC3CC3)c21` (stereo partly drawn) [Example 241, 3-(4-{[(1R,4R)-4-[6-({6-[4-(cyclopropylamino)-3-(propan-2-yl)-3H-imidazo[4,5-c]pyridin-6-yl]-2-oxo-1-[(1S,3S)-3-(piperidin-1-yl)cyclobutyl]-1,2-dihydrospiro[indole-3,4′-piperidin]-1′-yl}carbonyl)-3-azabicyclo[3.1.1]heptane-3-carbonyl]cyclohexyl]oxy}phenyl)piperidine-2,6-dione], the DC50 is less than 100 nM. In addition, the Dmax under setting [1] was more than 85%.
